This is an account of results in patent US8541002B2, “Vaccine for treatment and prevention of herpes simplex virus infection” (Agenus Inc., priority 2003, dated 2013).

Where no end group is shown, it is not given here.

A short description of the series: Turbidity assay for solubility of the peptides. It counts as physicochemical. To be noted: solubility of the antigenic peptides in water or Dimethyl Sulfoxide (DMSO). The protocol:
A number of antigenic peptides of the invention were synthesized by chemical synthesis as described in Section 5.1.1.
A turbidity assay was used to assess the solubility of the peptides. Turbidity assays used either a Varian Cary double-beam spectrophotometer, or a Molecular Devices Spectromax absorbance plate reader (for high throughput experiments). The spectrophotometer assay read every 2 nm between 340 nm and 360 nm, and averaged the values. Samples were analyzed in duplicate using a quartz micro-cuvette that holds about 200 uL. The plate reader assay used a 96-well plate format that read every 4 nm between 340 nm and 360 nm and averaged those values. Samples in this assay were run in triplicate.
For `CC[C@H](C)[C@H](NC(=O)[C@H](C)NC(=O)[C@H](CCC(=O)O)NC(=O)[C@H](CCCNC(=N)N)NC(=O)[C@H](CC(=O)O)NC(=O)[C@H](Cc1ccc(O)cc1)NC(=O)[C@H](CO)NC(=O)[C@@H]1CCCN1C(=O)[C@H](Cc1ccc(O)cc1)NC(=O)[C@H](CCCNC(=N)N)NC(=O)[C@H](CCCNC(=N)N)NC(=O)[C@H](CCC(N)=O)NC(=O)[C@H](Cc1ccc(O)cc1)NC(=O)[C@H](CCCCN)NC(=O)[C@@H](NC(=O)[C@@H](NC(=O)[C@H](CC(C)C)NC(=O)[C@@H](NC(=O)[C@H](Cc1ccc(O)cc1)NC(=O)[C@H](CCSC)NC(=O)[C@@H](NC(=O)[C@H](CC(N)=O)NC(=O)[C@H](Cc1c[nH]c2ccccc12)NC(=O)[C@H](CC(C)C)NC(=O)[C@H](CC(=O)O)NC(=O)[C@@H](NC(=O)[C@H](C)NC(=O)[C@@H](NC(=O)[C@@H]1CCCN1C(=O)[C@@H](NC(=O)[C@H](Cc1ccccc1)NC(=O)[C@H](Cc1ccc(O)cc1)NC(=O)CN)[C@@H](C)O)[C@@H](C)CC)C(C)C)C(C)C)[C@@H](C)O)C(C)C)C(C)C)C(=O)N[C@H](C(=O)N[C@@H](CC(C)C)C(=O)O)[C@@H](C)O` [UL41-3], the Solubility entry is given as “DMSO”.

On to “ARLRLEARLGHLVAAILEREQSLVAHALGYQLAFV [UL22-4]”, for which the Solubility entry is listed as “water”. Consider `CC[C@H](C)[C@H](NC(=O)[C@H](CC(=O)O)NC(=O)[C@H](CCCCN)NC(=O)[C@@H](NC(=O)[C@H](CC(=O)O)NC(=O)[C@H](CO)NC(=O)[C@H](CC(C)C)NC(=O)[C@H](CCCNC(=N)N)NC(=O)[C@H](CCCNC(=N)N)NC(=O)[C@H](CCCNC(=N)N)NC(=O)[C@H](CO)NC(=O)[C@H](CS)NC(=O)[C@H](CC(C)C)NC(=O)[C@H](CC(=O)O)NC(=O)[C@H](CC(=O)O)NC(=O)[C@@H](N)CC(C)C)[C@@H](C)CC)C(=O)N[C@@H](C)C(=O)N[C@@H](CO)C(=O)N[C@@H](Cc1ccccc1)C(=O)N[C@H](C(=O)N[C@@H](CC(C)C)C(=O)N[C@H](C(=O)N[C@H](C(=O)N[C@@H](CC(C)C)C(=O)N[C@@H](C)C(=O)N[C@@H](CCCNC(=N)N)C(=O)N[C@@H](CC(C)C)C(=O)N[C@@H](C)C(=O)N[C@@H](CC(N)=O)C(=O)N[C@@H](CCCNC(=N)N)C(=O)N[C@H](C(=O)N[C@@H](CCC(=O)O)C(=O)N[C@@H](CCCNC(=N)N)C(=O)NCC(=O)N[C@H](C(=O)O)C(C)C)C(C)C)[C@@H](C)CC)C(C)C)C(C)C` [UL54-2], for which the Solubility entry is “water”. Next, `CSCC[C@H](NC(=O)[C@@H]1CCCN1C(=O)CNC(=O)[C@H](C)NC(=O)CNC(=O)[C@H](CCCNC(=N)N)NC(=O)[C@H](CCCNC(=N)N)NC(=O)[C@@H](N)Cc1ccccc1)C(=O)N[C@@H](CCCNC(=N)N)C(=O)N[C@@H](C)C(=O)N[C@@H](CCCNC(=N)N)C(=O)N1CCC[C@H]1C(=O)N[C@@H](CCCNC(=N)N)C(=O)NCC(=O)N[C@@H](CCC(=O)O)C(=O)N[C@H](C(=O)N[C@@H](CCCNC(=N)N)C(=O)N[C@@H](Cc1ccccc1)C(=O)N[C@@H](CC(C)C)C(=O)N[C@@H](Cc1c[nH]cn1)C(=O)N[C@@H](Cc1ccc(O)cc1)C(=O)N[C@@H](CC(=O)O)C(=O)N[C@@H](CCC(=O)O)C(=O)N[C@@H](C)C(=O)NCC(=O)N[C@@H](Cc1ccc(O)cc1)C(=O)N[C@@H](C)C(=O)N[C@@H](CC(C)C)C(=O)N[C@@H](Cc1ccc(O)cc1)C(=O)N[C@@H](CCCNC(=N)N)C(=O)N[C@@H](CC(=O)O)C(=O)N[C@@H](CO)C(=O)N[C@@H](CO)C(=O)N[C@@H](CO)C(=O)N[C@@H](CC(=O)O)C(=O)O)C(C)C` [UL49-1]: “water”; “VSPAHPQTPVGAGSRDLSLKGTPSDGMQPRGADTL [US11-1]”: “water”; “PATLIPRAAAKHLAALTRVQAERSSGYWWVNGDGI [UL45-1]”: “water”. Then `CC[C@H](C)[C@H](NC(=O)[C@H](Cc1ccc(O)cc1)NC(=O)[C@H](C)NC(=O)[C@H](Cc1ccc(O)cc1)NC(=O)CNC(=O)[C@H](CC(C)C)NC(=O)[C@H](C)NC(=O)[C@H](CCCNC(=N)N)NC(=O)[C@H](CC(C)C)NC(=O)[C@@H](NC(=O)[C@H](CCCNC(=N)N)NC(=O)[C@@H](NC(=O)[C@H](CS)NC(=O)[C@H](Cc1ccccc1)NC(=O)[C@H](CC(C)C)NC(=O)[C@H](Cc1c[nH]cn1)NC(=O)[C@H](C)NC(=O)[C@H](CC(C)C)NC(=O)[C@H](CCCNC(=N)N)NC(=O)[C@H](CC(C)C)NC(=O)[C@H](C)NC(=O)[C@@H]1CCCN1C(=O)[C@H](CCCCN)NC(=O)[C@H](CO)NC(=O)[C@@H]1CCCN1C(=O)[C@H](C)NC(=O)CNC(=O)[C@H](CO)NC(=O)[C@@H]1CCCN1C(=O)[C@H](C)NC(=O)[C@H](C)N)[C@@H](C)CC)C(C)C)C(=O)N[C@@H](CC(N)=O)C(=O)N[C@@H](CO)C(=O)NCC(=O)N[C@@H](CCC(N)=O)C(=O)O` [UL41-1], with “water”. Next, “VAPACIIAAVLAYYVTWLARALLLYVNIKRDRLPL [UL20-2]”: “DMSO”; `CC[C@H](C)[C@H](NC(=O)[C@H](CCCCN)NC(=O)[C@@H](N)C(C)C)C(=O)N[C@@H](CCCNC(=N)N)C(=O)N[C@H](C(=O)N[C@@H](CCC(=O)O)C(=O)N[C@@H](CCC(=O)O)C(=O)N[C@@H](CCC(N)=O)C(=O)N[C@@H](C)C(=O)N[C@@H](C)C(=O)N[C@@H](CCCNC(=N)N)C(=O)N[C@@H](CCCNC(=N)N)C(=O)N[C@@H](CC(=O)O)C(=O)N[C@@H](Cc1ccccc1)C(=O)N[C@@H](CC(C)C)C(=O)N[C@H](C(=O)N[C@@H](C)C(=O)N[C@@H](Cc1c[nH]cn1)C(=O)N[C@@H](CCCNC(=N)N)C(=O)N[C@@H](CCCNC(=N)N)C(=O)N[C@@H](Cc1ccc(O)cc1)C(=O)N[C@@H](CC(C)C)C(=O)N[C@@H](CC(=O)O)C(=O)N1CCC[C@H]1C(=O)N[C@@H](C)C(=O)N[C@@H](CC(C)C)C(=O)N[C@@H](CO)C(=O)N[C@@H](CCC(=O)O)C(=O)N[C@@H](CCCNC(=N)N)C(=O)N[C@@H](CC(C)C)C(=O)N[C@@H](CC(=O)O)C(=O)N[C@@H](C)C(=O)N[C@@H](C)C(=O)N[C@@H](CC(=O)O)C(=O)N[C@@H](CC(=O)O)C(=O)O)[C@@H](C)O)C(C)C` [UL14-2]: “water”; “RAYLVNPFLFAAGFLEDLSHSVFPADTQETTTRRA [UL01-1]”: “water”.

With “GPGASPRLYSVVGPLGRQRLIIEELTLETQGMYYW [UL44-1]”, the Solubility result is on record as “water”. As for `CC(C)C[C@H](NC(=O)[C@H](CCCNC(=N)N)NC(=O)CNC(=O)[C@@H](NC(=O)[C@H](C)NC(=O)[C@H](C)NC(=O)[C@H](CS)NC(=O)[C@H](Cc1ccccc1)NC(=O)[C@@H](NC(=O)[C@H](CCCNC(=N)N)NC(=O)[C@H](CCCCN)NC(=O)[C@H](CC(N)=O)NC(=O)[C@H](Cc1ccccc1)NC(=O)CNC(=O)[C@H](C)NC(=O)[C@@H](NC(=O)[C@H](CCCNC(=N)N)NC(=O)[C@@H]1CCCN1C(=O)[C@@H](NC(=O)[C@H](Cc1c[nH]c2ccccc12)NC(=O)[C@@H]1CCCN1C(=O)[C@H](C)NC(=O)[C@@H](NC(=O)[C@@H]1CCCN1C(=O)[C@@H](N)CO)[C@@H](C)O)[C@@H](C)O)C(C)C)C(C)C)C(C)C)C(=O)N[C@@H](C)C(=O)N[C@@H](C)C(=O)N[C@H](C(=O)N[C@@H](Cc1c[nH]cn1)C(=O)N[C@@H](C)C(=O)N[C@@H](CCCNC(=N)N)C(=O)N[C@@H](CC(C)C)C(=O)N[C@@H](C)C(=O)N[C@@H](C)C(=O)N[C@H](C(=O)O)C(C)C)[C@@H](C)O` [UL49-2], the Solubility result was “water”. Then `CC[C@H](C)[C@H](NC(=O)[C@H](CO)NC(=O)[C@H](CC(=O)O)NC(=O)[C@@H](NC(=O)[C@@H](NC(=O)[C@@H](NC(=O)CNC(=O)[C@H](CCC(N)=O)NC(=O)[C@H](CCC(N)=O)NC(=O)[C@H](Cc1ccc(O)cc1)NC(=O)[C@H](C)NC(=O)[C@H](CCCCN)NC(=O)[C@@H](N)CO)C(C)C)[C@@H](C)O)C(C)C)C(=O)NCC(=O)N[C@@H](CCSC)C(=O)N[C@@H](CC(C)C)C(=O)N1CCC[C@H]1C(=O)N[C@@H](CCCNC(=N)N)C(=O)N[C@@H](Cc1ccccc1)C(=O)N[C@H](C(=O)N1CCC[C@H]1C(=O)N[C@@H](CCC(=O)O)C(=O)N[C@@H](CC(N)=O)C(=O)N[C@@H](CCC(N)=O)C(=O)N[C@@H](CCCNC(=N)N)C(=O)N[C@H](C(=O)N[C@H](C(=O)N[C@@H](C)C(=O)N[C@@H](CC(C)C)C(=O)N[C@@H](Cc1ccc(O)cc1)C(=O)N[C@@H](CO)C(=O)N[C@@H](CC(C)C)C(=O)N[C@@H](CCCCN)C(=O)N[C@H](C(=O)N[C@@H](C)C(=O)O)[C@@H](C)CC)C(C)C)[C@@H](C)O)[C@@H](C)CC` [US06-3], with “water”; and “VSIIALTELYFILRRGSAPKNAEPAAPRGRSKGWS [UL53-3]”, with “water”.
